Results from ChEMBL document CHEMBL5113482, “Discovery of fused benzimidazole-imidazole autophagic flux inhibitors for treatment of triple-negative breast cancer” (Eur J Med Chem, 2022).
pIC50: −log10 of the molar value.

Tested on: MDA-MB-231
Test: Antiproliferative activity against human MDA-MB-231 cells assessed as cell growth inhibition measured after 48 hrs by MTT assay
Type: functional, cell-based
Details: MDA-MB-231, 48 h

With N#Cc1cccc(NC(=O)c2[nH]cnc2-c2nc3ccccc3[nH]2)c1 as the compound, how does the pIC50 read?
The pIC50 was 4.60.

O=C(c1[nH]cnc1-c1nc2ccccc2[nH]1)N1CCOCC1 was tested. Which pIC50 did it give?
The pIC50 was < 4.40.

O=C(NCC1CC1)c1[nH]cnc1-c1nc2ccccc2[nH]1 was tested. Which pIC50 did it give?
The pIC50 was 4.48.

With O=C(NCc1cccs1)c1[nH]cnc1-c1nc2ccccc2[nH]1 as the compound, how does the pIC50 read?
Its pIC50 is 4.45.

With O=C(NCc1ccco1)c1[nH]cnc1-c1nc2ccccc2[nH]1 as the compound, how does the pIC50 read?
The pIC50 was 4.65.

How did the pIC50 turn out when O=C(NC1CCCC1)c1[nH]cnc1-c1nc2ccccc2[nH]1 was run?
The pIC50 was 4.69.

Cc1cc2nc(-c3nc[nH]c3C(=O)NC3CCCCC3)[nH]c2cc1C was tested. Which pIC50 did it give?
The pIC50 was 4.45.

How did the pIC50 turn out when Cn1c(-c2nc[nH]c2C(=O)NC2CCCCC2)nc2ccccc21 was run?
The pIC50 was 4.43.

O=C(NC1CCCCCC1)c1[nH]cnc1-c1nc2ccccc2[nH]1 was tested. Which pIC50 did it give?
Its pIC50 is < 4.40.

With CC(C)(C)NC(=O)c1[nH]cnc1-c1nc2ccccc2[nH]1 as the compound, how does the pIC50 read?
The pIC50 was < 4.40.

With O=c1[nH]cc(F)c(=O)[nH]1 [FLUOROURACIL] as the compound, how does the pIC50 read?
Its pIC50 is 4.57.

How did the pIC50 turn out when O=C(NC1CC1)c1[nH]cnc1-c1nc2ccccc2[nH]1 was run?
The pIC50 was 4.45.

How did the pIC50 turn out when Cn1cnc(-c2nc3ccccc3n2C)c1C(=O)NC1CCCCC1 was run?
Its pIC50 is < 4.40.

How did the pIC50 turn out when O=C(NC1CCC1)c1[nH]cnc1-c1nc2ccccc2[nH]1 was run?
Its pIC50 is 4.47.

O=C(Nc1cccc2ccccc12)c1[nH]cnc1-c1nc2ccccc2[nH]1 was tested. Which pIC50 did it give?
Its pIC50 is 4.46.

N#Cc1ccccc1NC(=O)c1[nH]cnc1-c1nc2ccccc2[nH]1 was tested. Which pIC50 did it give?
Its pIC50 is 4.47.

Tested on: MDA-MB-468
Test: Antiproliferative activity against human MDA-MB-468 cells assessed as cell growth inhibition measured after 48 hrs by MTT assay
Type: functional, cell-based
Details: MDA-MB-468, 48 h

With O=c1[nH]cc(F)c(=O)[nH]1 [FLUOROURACIL] as the compound, how does the pIC50 read?
The pIC50 was < 3.70.
